# Test results reported in patent publication US20180280370A1, “DOSAGE REGIMEN FOR A PHOSPHATIDYLINOSITOL 3-KINASE INHIBITOR” (Novartis AG, priority 2015, published 2018).
# Read-outs that look alike come from different tables or passages of the source.
# Tests used:
# advanced solid tumors = settings: cited from earlier work
# [1] = Continuous blood glucose measurement via radio-telemetry in conscious freely moving rats; assay type: in vivo, Brown Norway rats; settings: for normalization of blood glucose in between 2 doses: steady state
# Procedure: Animals and maintenance conditions: Experiments were performed in female nude Rowett rats Hsd: RH-Fox1rnu or female Brown-Norway (BN) rats (Harlan (The Netherlands). Animals were 6-9 weeks of age at time of application of the compound. Animals were housed under Optimized Hygienic Conditions in Makrolon type III cages (max. 2 animals per cage) with free access to food and water. They were allowed to adapt for at least 6 days before the experiment was started.
# Compound A was prepared for dosing as homogenous suspensions in 1% carboxymethyl cellulose: 0.5% Tween® 80: 98.5% deionized water. Fresh suspensions were prepared once every 7 days and stored at 4° C. Compound A or vehicle was administered orally at a volume of 10 mL/kg.
# Blood Glucose Measurements Via Radio-Telemetry Technology (HD-XG Radio Telemetry Transmitter; Data Sciences International):
# Blood glucose levels were measured continuously in conscious non-restrained freely moving rats by the method described in Brockway et al., Journal of Diabetes Science and Technology., 9(4):771-81 (2015), which is incorporated herein by reference in its entirety. Briefly, the 1.4 cc telemetry device provides direct continuous blood glucose readings along with temperature and activity for 4 weeks or longer. The device was used in non-tumor bearing Brown Norway (BN) rats. Each animal was surgically instrumented with glucose sensors in the abdominal aorta and the device placed in the intraperitoneal cavity. Continuous glucose readings were recorded with the Dataquest A.R.T. data acquisition system. Reference glucose values were measured from tail vein blood samples using the Nova StatStrip glucometer twice per week. Each animal was measured in cyclic runs of 1 minute for 10 seconds with a sampling rate of 1 Hz. Mean values for blood glucose levels, body temperature and motor activity were then computed and stored. Fifteen minutes or hourly averages were determined using the interval averaging routine on the Dataquest Analysis Software (Dataquest A.R.T, version 4.36; Data Sciences). Blood glucose values are expressed in mmol/L, body temperature in degree Celsius (° C.) and motor activity in number of movements (units) per minute.
# (§1) Absolute values for primary tumor growth and body weight were used to make the statistical comparisons between groups (one way ANOVA followed by Dunnett's test for normally distributed data; ANOVA on Ranks for not normally distributed data followed by Dunnett's test for equal group size or Dunn's for unequal group size). Absolute values for blood glucose (calculated mean over 6 hours' time periods) and PK data were used to make the statistical comparisons between groups (two-tailed Student's t-tests). The significant level was set at p<0.05. All statistical calculations were carried out using SigmaStat.
# [2] = Plasma PK after oral administration in freely moving catheterized rats with automated blood sampling; assay type: in vivo, Brown Norway rats; settings: day 1 or 4 (steady state), 50 mg/kg p.o. qd; 2, 4, 6, 8, 10, 12, 18 and 24h post treatment
# Text: Determination of Pharmacokinetic (PK) Parameters after Oral Administration of Compound A in Freely Moving Catheterized Rats Using Automated Blood Sampling (ABS) Technology:
# The highly automated ABS system (Instech ABS2™) allows for unattended blood sample collection via an in-dwelling venous catheter placed in the jugular or femoral vein. For all animals, cannulas were filled with 1:1 heparin glycerol solution when not on study. The ABS freely-moving system is a well-recognized method to reduce stress during blood sampling and it only marginally impedes the animal in its freedom to move, drink, eat and sleep. Furthermore, this method allows obtaining pharmacokinetic parameters at night time (active phase of the animal).
# as §1
# [3] = tested on: Rat1-myr-p110α subcutaneous xenografts; experiment: Antitumor efficacy in Rat1-myr-p110α tumor bearing nude rats; assay type: in vivo; settings: for body weight changes, 10 A.M. vs 5 p.m. dosing / tumor volume inhibition, 10 A.M. (ALTERNATIVE SCHEDULE 1) vs 5 p.m. dosing: 14 consecutive days
# Procedure: Animals and maintenance conditions: Experiments were performed in female nude Rowett rats Hsd: RH-Fox1rnu or female Brown-Norway (BN) rats (Harlan (The Netherlands). Animals were 6-9 weeks of age at time of application of the compound. Animals were housed under Optimized Hygienic Conditions in Makrolon type III cages (max. 2 animals per cage) with free access to food and water. They were allowed to adapt for at least 6 days before the experiment was started. Cell line and cell culture: Rat1-Myr-p110α cells were grown in Dulbecco's Modified Eagle Medium (DMEM) culture medium containing 4.5 g/l glucose supplemented with 10% heat-inactivated fetal calf serum (FCS), 2 mM L-glutamine, 1 mM sodium pyruvate and incubated at 37° C. in a 5% CO2 humidified atmosphere. Cells were harvested with trypsin-EDTA, re-suspended in culture medium (with additives) and counted with a Casy® system. Finally, cells were centrifuged, suspended in ice-cold Hanks' balanced salt solution (HBSS) at a concentration of 3×10^7 cells/ml. Cell culture reagents were purchased from BioConcept (Allschwil, Switzerland). Rat1-myr-p110α cells were generated by the method described in Maira et al., Molecular Cancer Therapeutics, 11:317-328 (2012), which is incorporated herein by reference in its entirety. Briefly, Rat1 cells were transfected to stably express the constitutively active form of the catalytic PI3K class I p110 isoforms a by addition of a myristylation signal to the N-terminus. Rat1-Myr-p110α tumors were established by subcutaneous injection of […] in 100 μL HBSS (Sigma #H8264) into the right flank of nude rats. For the efficacy experiments, treatments were initiated when the mean tumor volumes were approx. 900-1200 mm^3 (21 to 23 days post tumor cells injection). Compound A was prepared for dosing as homogenous suspensions in 1% carboxymethyl cellulose: 0.5% Tween® 80: 98.5% deionized water. Fresh suspensions were prepared once every 7 days and stored at 4° C. Compound A or vehicle was administered orally at a volume of 10 mL/kg. Tumor volumes were measured with calipers and determined according to the formula: length×diameter^2×π/6. In addition to presenting changes of tumor volumes over the course of treatments, antitumor activity is expressed as T/C % (mean change of tumor volume of treated animals/mean change of tumor volume of control animals)×100. Regressions (%) were calculated according to the formula ((mean tumor volume at end of treatment−mean tumor volume at start of treatment)/mean tumor volume at start of treatment)×100. Body weights and tumor volumes were recorded two to three times a week. Absolute values for primary tumor growth and body weight were used to make the statistical comparisons between groups (one way ANOVA followed by Dunnett's test for normally distributed data; ANOVA on Ranks for not normally distributed data followed by Dunnett's test for equal group size or Dunn's for unequal group size). Absolute values for blood glucose (calculated mean over 6 hours' time periods) and PK data were used to make the statistical comparisons between groups (two-tailed Student's t-tests). The significant level was set at p<0.05. All statistical calculations were carried out using SigmaStat.
# [4] = tested on: advanced solid malignancies carrying an alteration in the PIK3CA gene; settings: cited from earlier work
# [5] = daily administration, human patients
smiles,measurement,setting,value
"Nc1cc(C(F)(F)F)c(-c2cc(N3CCOCC3)nc(N3CCOCC3)n2)cn1 [Compound B, 4-(trifluoromethyl)-5-(2,6-dimorpholinopyrimidin-4-yl)pyridin-2-amine]",patients with induced hyperglycemia,advanced solid tumors; [5],31%
same,unconfirmed partial responses,"advanced solid tumors; parotid gland carcinoma, epithelioid hemangiothelioma, ER+ breast cancer",three
same,confirmed partial response,"advanced solid tumors; triple-negative breast cancer, 83 patients enrolled",One
"Cc1nc(NC(=O)N2CCC[C@H]2C(N)=O)sc1-c1ccnc(C(C)(C)C(F)(F)F)c1 [Compound A, (S)-Pyrrolidine-1,2-dicarboxylic acid 2-amide 1-({4-methyl-5-[2-(2,2,2-trifluoro-1,1-dimethyl-ethyl)-pyridin-4-yl]-thiazol-2-yl}-amide)]",normalization of blood glucose in between 2 doses,"[1]; 50 mg/kg p.o. qd, dosing before the active phase (5 p.m.)",could not be achieved
same,normalization of blood glucose in between 2 doses,"[1]; 50 mg/kg p.o. qd, dosing before the inactive phase (10 a.m.)",allowed blood glucose to normalize in between 2 doses
same,change in glucose level,"[1]; 50 mg/kg p.o. qd, steady state (Day 4), n=6",transient glucose level increase
same,effect on blood glucose levels,"[1]; day 1 of treatment, 50 mg/kg p.o. qd dosed at 5 PM (active phase)",slight hyperglycemia
same,effect on blood glucose levels,"[1]; day 1 of treatment, 50 mg/kg p.o. qd dosed at 10 AM (inactive phase)",slight hyperglycemia
same,period of remaining transient hyperglycemia after treatment discontinuation,"[1]; recovery day 1, group dosed before the active phase (5 p.m.), 50 mg/kg p.o. qd",up to 12 h
same,blood glucose after treatment discontinuation,"[1]; start of recovery day 1, group dosed before the inactive phase (10 a.m.), 50 mg/kg p.o. qd",already normalized to baseline levels
same,effect on blood glucose levels,"[1]; steady state (Day 4-5 of daily treatment), 50 mg/kg p.o. qd",transient hyperglycemia profile
same,"plasma PK profile, 10 AM vs 5 PM dosing",[2],did not revealed any significant differences
same,anti-tumor efficacy,"[3]; 14 mg/kg p.o. qd, 2 weeks of treatment",stasis
same,"body weight changes, 10 A.M. vs 5 p.m. dosing",[3]; 14 mg/kg p.o. qd,very similar pattern
same,"tumor volume inhibition, 10 A.M. (ALTERNATIVE SCHEDULE 1) vs 5 p.m. dosing",[3]; 14 mg/kg p.o. qd,No significant differences
same,tumor regression,"[3]; 25 mg/kg p.o. qd, 2 weeks of treatment",50%
same,"body weight changes, 10 A.M. vs 5 p.m. dosing",[3]; 25 mg/kg p.o. qd,very similar pattern
same,"tumor volume inhibition, 10 A.M. (ALTERNATIVE SCHEDULE 1) vs 5 p.m. dosing",[3]; 25 mg/kg p.o. qd,No significant differences
same,"Disease control rate (complete response, partial response or stable disease)","[4]; 150 mg/BID, 95% CI: 38.4-88.2",66.7%
same,confirmed partial responses,[4]; 150 mg/BID,2 patients
same,confirmed partial responses,[4]; 270 mg/QD,2 patients
same,confirmed partial responses,[4]; 350 mg/QD,1 patients
same,"Disease control rate (complete response, partial response or stable disease)","[4]; 400 mg/QD, 95% CI: 40.1-66.0",53.2%
same,confirmed partial responses,[4]; 400 mg/QD,2 patients
same,MTD,"[4]; QD, in patients",400 mg
same,confirmed partial responses,"[4]; all doses, of 132 evaluable patients",7 patients
same,patients with induced hyperglycemia,[4]; [5],49%
same,partial responses to treatment,"[4]; of 132 evaluable patients, as of Mar. 10, 2014, oral 30-450 mg q.d. or 120-200 mg b.i.d.",15 patients
